In this assay the target is JAK1 (Homo sapiens (Human), UniProt P23458). Nature of the assay: Analysis of JAK1 activity inhibition ability (ADP-Glo Kinase Assay). It is filed as biochemical. The note with it: JAK1 enzyme, ADP-Glo luminescence, ATP 250 uM, IRS-itide substrate, 30° C. 40 minutes; read-out: IC50. The method in brief: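 JAK1 enzyme, IRS-itide substrate (40 ng/mL) and 250 uM ATP, both as prepared in kinase buffer (Tris-HCl pH 7.5, MgCl2, BSA, DTT), reacted with compound 40 min at 30 °C. ADP formed was detected by ADP-Glo luminescence; IC50 is the concentration giving 50% inhibition versus control.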
JAK1, sequence (P23458 whole entry): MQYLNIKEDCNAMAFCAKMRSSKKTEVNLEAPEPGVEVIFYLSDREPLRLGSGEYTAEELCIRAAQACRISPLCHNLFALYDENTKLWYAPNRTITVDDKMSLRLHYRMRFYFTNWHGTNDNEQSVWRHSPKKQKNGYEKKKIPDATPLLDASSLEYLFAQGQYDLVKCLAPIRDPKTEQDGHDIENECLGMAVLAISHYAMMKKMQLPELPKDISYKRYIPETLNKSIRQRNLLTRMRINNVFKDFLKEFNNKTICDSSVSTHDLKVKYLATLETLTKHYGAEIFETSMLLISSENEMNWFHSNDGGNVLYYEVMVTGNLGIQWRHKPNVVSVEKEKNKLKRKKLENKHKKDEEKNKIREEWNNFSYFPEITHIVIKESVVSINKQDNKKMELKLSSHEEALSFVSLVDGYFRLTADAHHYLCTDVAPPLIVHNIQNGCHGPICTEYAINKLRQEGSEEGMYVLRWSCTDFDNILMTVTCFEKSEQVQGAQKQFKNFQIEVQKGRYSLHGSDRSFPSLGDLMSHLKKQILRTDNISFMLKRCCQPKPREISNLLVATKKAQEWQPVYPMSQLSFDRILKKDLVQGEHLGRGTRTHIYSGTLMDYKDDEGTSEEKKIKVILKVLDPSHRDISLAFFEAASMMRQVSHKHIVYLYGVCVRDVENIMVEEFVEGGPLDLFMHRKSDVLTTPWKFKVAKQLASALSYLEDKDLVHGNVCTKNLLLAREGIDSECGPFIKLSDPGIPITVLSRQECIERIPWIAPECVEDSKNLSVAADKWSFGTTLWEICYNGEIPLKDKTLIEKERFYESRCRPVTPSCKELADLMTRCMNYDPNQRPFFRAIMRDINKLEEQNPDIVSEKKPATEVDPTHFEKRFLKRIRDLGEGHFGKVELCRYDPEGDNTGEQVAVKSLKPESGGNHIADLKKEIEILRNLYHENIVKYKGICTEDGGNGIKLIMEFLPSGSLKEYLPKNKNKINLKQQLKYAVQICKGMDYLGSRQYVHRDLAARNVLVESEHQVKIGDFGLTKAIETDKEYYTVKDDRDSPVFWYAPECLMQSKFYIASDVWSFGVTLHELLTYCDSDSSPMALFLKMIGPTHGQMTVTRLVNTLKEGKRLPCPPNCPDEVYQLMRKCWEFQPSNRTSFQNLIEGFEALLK
(In general: ADP-Glo turns the ADP formed in a reaction into a luminescent signal.)

IC50 data for 29 compounds are collected here from patent publication US11524968B2, “Heterocyclic compound as a protein kinase inhibitor” (HK inno.N Corporation, priority 2017, dated 2022).

The term IC50 denotes the midpoint of a concentration-inhibition curve.

For `Cc1nnnn1Cc1ccc(-c2cc(NC(=O)C3CC3)nc3[nH]cnc23)cc1` [Example 594, N-(7-(4-((5-methyl-1H-tetrazol-1-yl)methyl)phenyl)-3H-imidazo[4,5-b]pyridin-5-yl)cyclopropanecarboxamide], the IC50 was > 200 nM.
Then `O=C(Nc1cc(-c2ccc(CNC3CCS(=O)(=O)C3)cc2)c2cc[nH]c2n1)C1CC1` (centres unmarked) [Example 595, N-(4-(4-(((1,1-dioxidotetrahydrothiophen-3-yl)amino)methyl)phenyl)-1H-pyrrolo[2,3-b]pyridin-6-yl)cyclopropanecarboxamide], with 20 to 200 nM.
Then `O=C(Nc1cc(-c2ccc(CNC3CCS(=O)(=O)CC3)cc2)c2cc[nH]c2n1)C1CC1` [Example 596, N-(4-(4-(((1,1-dioxidotetrahydro-2H-thiopyran-4-yl)amino)methyl)phenyl)-1H-pyrrolo[2,3-b]pyridin-6-yl)cyclopropanecarboxamide], with 20 to 200 nM.
Next, `O=C(Nc1nc(-c2ccc(CNc3ccc(F)cc3)cc2)c2nc[nH]c2n1)C1CC1` [Example 597, N-(6-(4-(((4-fluorophenyl)amino)methyl)phenyl)-9H-purin-2-yl)cyclopropanecarboxamide]: > 200 nM; `O=C(Nc1nc(-c2ccc(CNc3cccc(F)c3)cc2)c2nc[nH]c2n1)C1CC1` [Example 598, N-(6-(4-(((3-fluorophenyl)amino)methyl)phenyl)-9H-purin-2-yl)cyclopropanecarboxamide]: > 200 nM; `O=C(Nc1cc(-c2cnn(C3CN(S(=O)(=O)C(F)(F)F)C3)c2)c2cc[nH]c2n1)C1CC1` [Example 599, N-(4-(1-(1-((trifluoromethyl)sulfonyl)azetidin-3-yl)-1H-pyrazol-4-yl)-1H-pyrrolo[2,3-b]pyridin-6-yl)cyclopropanecarboxamide]: < 20 nM.
In the case of `O=C(Nc1cc(-c2cnn(C3CNC3)c2)c2cc[nH]c2n1)C1CC1` [Example 600, N-(4-(1-(azetidin-3-yl)-1H-pyrazol-4-yl)-1H-pyrrolo[2,3-b]pyridin-6-yl)cyclopropanecarboxamide], the half-maximal inhibitory concentration (IC50) lay within 20 to 200 nM.
Next, `CCS(=O)(=O)N1CC(n2cc(-c3cc(NC(=O)C4CC4)nc4[nH]ccc34)cn2)C1` [Example 601, N-(4-(1-(1-(ethylsulfonyl)azetidin-3-yl)-1H-pyrazol-4-yl)-1H-pyrrolo[2,3-b]pyridin-6-yl)cyclopropanecarboxamide]: 20 to 200 nM; `CCCCS(=O)(=O)N1CC(n2cc(-c3cc(NC(=O)C4CC4)nc4[nH]ccc34)cn2)C1` [Example 602, N-(4-(1-(1-(butylsulfonyl)azetidin-3-yl)-1H-pyrazol-4-yl)-1H-pyrrolo[2,3-b]pyridin-6-yl)cyclopropanecarboxamide]: > 200 nM.
Then `CS(=O)(=O)N1CC(n2cc(-c3cc(NC(=O)C4CC4)nc4[nH]ccc34)cn2)C1` [Example 603, N-(4-(1-(1-(methylsulfonyl)azetidin-3-yl)-1H-pyrazol-4-yl)-1H-pyrrolo[2,3-b]pyridin-6-yl)cyclopropanecarboxamide], with 20 to 200 nM; and `O=C(Nc1cc(-c2cnn(C3CN(S(=O)(=O)c4ccccc4)C3)c2)c2cc[nH]c2n1)C1CC1` [Example 604, N-(4-(1-(1-(phenylsulfonyl)azetidin-3-yl)-1H-pyrazol-4-yl)-1H-pyrrolo[2,3-b]pyridin-6-yl)cyclopropanecarboxamide], with 20 to 200 nM; and `O=C(Nc1cc(-c2cnn(C3CN(S(=O)(=O)c4ccc(F)c(F)c4)C3)c2)c2cc[nH]c2n1)C1CC1` [Example 605, N-(4-(1-(1-((3,4-difluorophenyl)sulfonyl)azetidin-3-yl)-1H-pyrazol-4-yl)-1H-pyrrolo[2,3-b]pyridin-6-yl)cyclopropanecarboxamide], with 20 to 200 nM.
In the case of `O=C(Nc1cc(-c2cnn(C3CN(S(=O)(=O)C4CCCCC4)C3)c2)c2cc[nH]c2n1)C1CC1` [Example 606, N-(4-(1-(1-(cyclohexylsulfonyl)azetidin-3-yl)-1H-pyrazol-4-yl)-1H-pyrrolo[2,3-b]pyridin-6-yl)cyclopropanecarboxamide], the IC50 was > 200 nM.
Next, `CS(=O)(=O)N1CCC(n2cc(-c3cc(NC(=O)C4CC4)nc4[nH]ccc34)cn2)CC1` [Example 607, N-(4-(1-(1-(methylsulfonyl)piperidin-4-yl)-1H-pyrazol-4-yl)-1H-pyrrolo[2,3-b]pyridin-6-yl)cyclopropanecarboxamide]: 20 to 200 nM; `CCS(=O)(=O)N1CCC(n2cc(-c3cc(NC(=O)C4CC4)nc4[nH]ccc34)cn2)CC1` [Example 608, N-(4-(1-(1-(ethylsulfonyl)piperidin-4-yl)-1H-pyrazol-4-yl)-1H-pyrrolo[2,3-b]pyridin-6-yl)cyclopropanecarboxamide]: 20 to 200 nM; `O=C(Nc1cc(-c2cnn(C3CCN(S(=O)(=O)C(F)(F)F)CC3)c2)c2cc[nH]c2n1)C1CC1` [Example 609, N-(4-(1-(1-((trifluoromethyl)sulfonyl)piperidin-4-yl)-1H-pyrazol-4-yl)-1H-pyrrolo[2,3-b]pyridin-6-yl)cyclopropanecarboxamide]: 20 to 200 nM.
Next, `N#CCC(=O)N1CC(n2cc(-c3cc(NC(=O)C4CC4)nc4[nH]ccc34)cn2)C1` [Example 610, N-(4-(1-(1-(2-cyanoacetyl)azetidin-3-yl)-1H-pyrazol-4-yl)-1H-pyrrolo[2,3-b]pyridin-6-yl)cyclopropanecarboxamide]: 20 to 200 nM; `N#CCN1CCC(n2cc(-c3cc(NC(=O)C4CC4)nc4[nH]ccc34)cn2)CC1` [Example 611, N-(4-(1-(1-(cyanomethyl)piperidin-4-yl)-1H-pyrazol-4-yl)-1H-pyrrolo[2,3-b]pyridin-6-yl)cyclopropanecarboxamide]: 20 to 200 nM.
Consider `N#CCC1(N2CC=C(c3cc(NC(=O)C4CC4)nc4[nH]ccc34)CC2)COC1` [Example 612, N-(4-(1-(3-(cyanomethyl)oxetan-3-yl)-1,2,3,6-tetrahydropyridin-4-yl)-1H-pyrrolo[2,3-b]pyridine-6-yl) cyclopropanecarboxamide], for which the IC50 is > 200 nM.
Then `CC1CN(C2(CC#N)COC2)CC=C1c1cc(NC(=O)C2CC2)nc2[nH]ccc12` (centres unmarked) [Example 613, N-(4-(1-(3-(cyanomethyl)oxetan-3-yl)-3-methyl-1,2,3,6-tetrahydropyridin-4-yl)-1H-pyrrolo[2,3-b]pyridin-6-yl)cyclopropanecarboxamide], with 20 to 200 nM; and `CC(C)(C)OC(=O)N1CC(CC#N)(N2CC=C(c3cc(NC(=O)C4CC4)nc4[nH]ccc34)CC2)C1` [Example 614, tert-butyl 3-(cyanomethyl)-3-(4-(6-(cyclopropanecarboxamido)-1H-pyrrolo[2,3-b]pyridin-4-yl)-3,6-dihydropyridin-1 (2H)-yl)azetidine-1-carboxylate], with > 200 nM.
Turning to `N#CCC1(N2CC=C(c3cc(NC(=O)C4CC4)nc4[nH]ccc34)CC2)CNC1` [Example 615, N-(4-(1-(3-(cyanomethyl)azetidin-3-yl)-1,2,3,6-tetrahydropyridin-4-yl)-1H-pyrrolo[2,3-b]pyridin-6-yl)cyclopropanecarboxamide], the IC50 fell in the range of 20 to 200 nM.
Next, `CCS(=O)(=O)N1CC(CC#N)(N2CC=C(c3cc(NC(=O)C4CC4)nc4[nH]ccc34)CC2)C1` [Example 616, N-(4-(1-(3-(cyanomethyl)-1-(ethylsulfonyl)azetidin-3-yl)-1,2,3,6-tetrahydropyridin-4-yl)-1H-pyrrolo[2,3-b]pyridin-6-yl)cyclopropanecarboxamide]: < 20 nM; `CC(C)S(=O)(=O)N1CC(CC#N)(N2CC=C(c3cc(NC(=O)C4CC4)nc4[nH]ccc34)CC2)C1` [Example 617, N-(4-(1-(3-(cyanomethyl)-1-(isopropylsulfonyl)azetidin-3-yl)-1,2,3,6-tetrahydropyridin-4-yl)-1H-pyrrolo[2,3-b]pyridin-6-yl)cyclopropanecarboxamide]: < 20 nM.
In the case of `N#CCCCS(=O)(=O)N1CC(CC#N)(N2CC=C(c3cc(NC(=O)C4CC4)nc4[nH]ccc34)CC2)C1` [Example 618, N-(4-(1-(3-(cyanomethyl)-1-((3-cyanopropyl)sulfonyl)azetidin-3-yl)-1,2,3,6-tetrahydropyridin-4-yl)-1H-pyrrolo[2,3-b]pyridin-6-yl)cyclopropanecarboxamide], the IC50 is < 20 nM.
Next, `N#CCC1(N2CC=C(c3cc(NC(=O)C4CC4)nc4[nH]ccc34)CC2)CN(S(=O)(=O)C(F)(F)F)C1` [Example 619, N-(4-(1-(3-(cyanomethyl)-1-((trifluoromethyl)sulfonyl)azetidin-3-yl)-1,2,3,6-tetrahydropyridin-4-yl)-1H-pyrrolo[2,3-b]pyridin-6-yl)cyclopropanecarboxamide]: < 20 nM; `N#CCC1(N2CC=C(c3cc(NC(=O)C4CC4)nc4[nH]ccc34)CC2)CN(C2CCNCC2)C1` [Example 620, N-(4-(1-(3-(cyanomethyl)-1-(piperidin-4-yl)azetidin-3-yl)-1,2,3,6-tetrahydropyridin-4-yl)-1H-pyrrolo[2,3-b]pyridin-6-yl)cyclopropanecarboxamide]: > 200 nM; `N#CCC1(N2CC=C(c3cc(NC(=O)C4CC4)nc4[nH]ccc34)CC2)CN(C2CCN(C(=O)c3nc(C(F)(F)F)cs3)CC2)C1` [Example 621, N-(4-(1-(3-(cyanomethyl)-1-(1-(4-(trifluoromethyl)thiazole-2-carbonyl)piperidin-4-yl)azetidin-3-yl)-1,2,3,6-tetrahydropyridin-4-yl)-1H-pyrrolo[2,3-b]pyridin-6-yl)cyclopropanecarboxamide]: 20 to 200 nM.
Regarding `N#CCC(=O)N1CCC(N2CC(CC#N)(N3CC=C(c4cc(NC(=O)C5CC5)nc5[nH]ccc45)CC3)C2)CC1` [Example 622, N-(4-(1-(1-(1-(2-cyanoacetyl)piperidin-4-yl)-3-(cyanomethyl)azetidin-3-yl)-1,2,3,6-tetrahydropyridin-4-yl)-1H-pyrrolo[2,3-b]pyridin-6-yl)cyclopropanecarboxamide], the IC50 lay within 20 to 200 nM.
